The target of this assay is purified human, His-tagged PRC2 complex (Homo sapiens (Human), UniProt O75530). The assay is described as follows: Hot Spot HMT assay, inhibition of PRC2 enzymatic activity. Type of assay: biochemical. The conditions noted are these: 10 nM PRC2 complex, 1 μM 3H-SAM, core histone H3, 10-point dose-response. The method, boiled down:
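Five-subunit PRC2 complex (EZH2, EED, SUZ12, AEBP2, RbAp48; 10 nM) preincubated 20 min at 30° C with compound (top 1.0 μM) and 0.05 mg/ml core histone H3 in Tris-HCl, 1% DMSO. Started with 1 μM [3H]SAM, 1 hr at 30° C; tritiated H3 measured by filter binding and scintillation.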
Chain of purified human, His-tagged PRC2 complex (O75530 whole entry): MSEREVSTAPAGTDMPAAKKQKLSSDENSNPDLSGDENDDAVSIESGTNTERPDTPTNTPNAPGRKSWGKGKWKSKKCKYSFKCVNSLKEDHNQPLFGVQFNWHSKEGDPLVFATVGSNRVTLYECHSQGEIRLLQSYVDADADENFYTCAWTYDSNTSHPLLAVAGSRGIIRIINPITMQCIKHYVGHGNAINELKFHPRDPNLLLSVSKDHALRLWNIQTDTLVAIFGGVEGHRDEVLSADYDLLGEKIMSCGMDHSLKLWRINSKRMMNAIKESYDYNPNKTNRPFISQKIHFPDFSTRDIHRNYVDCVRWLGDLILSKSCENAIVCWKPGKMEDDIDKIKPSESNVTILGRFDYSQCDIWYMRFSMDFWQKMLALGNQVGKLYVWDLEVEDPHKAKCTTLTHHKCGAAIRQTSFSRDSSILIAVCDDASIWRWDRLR
Chain of purified human, His-tagged PRC2 complex (Q15910 whole entry partner): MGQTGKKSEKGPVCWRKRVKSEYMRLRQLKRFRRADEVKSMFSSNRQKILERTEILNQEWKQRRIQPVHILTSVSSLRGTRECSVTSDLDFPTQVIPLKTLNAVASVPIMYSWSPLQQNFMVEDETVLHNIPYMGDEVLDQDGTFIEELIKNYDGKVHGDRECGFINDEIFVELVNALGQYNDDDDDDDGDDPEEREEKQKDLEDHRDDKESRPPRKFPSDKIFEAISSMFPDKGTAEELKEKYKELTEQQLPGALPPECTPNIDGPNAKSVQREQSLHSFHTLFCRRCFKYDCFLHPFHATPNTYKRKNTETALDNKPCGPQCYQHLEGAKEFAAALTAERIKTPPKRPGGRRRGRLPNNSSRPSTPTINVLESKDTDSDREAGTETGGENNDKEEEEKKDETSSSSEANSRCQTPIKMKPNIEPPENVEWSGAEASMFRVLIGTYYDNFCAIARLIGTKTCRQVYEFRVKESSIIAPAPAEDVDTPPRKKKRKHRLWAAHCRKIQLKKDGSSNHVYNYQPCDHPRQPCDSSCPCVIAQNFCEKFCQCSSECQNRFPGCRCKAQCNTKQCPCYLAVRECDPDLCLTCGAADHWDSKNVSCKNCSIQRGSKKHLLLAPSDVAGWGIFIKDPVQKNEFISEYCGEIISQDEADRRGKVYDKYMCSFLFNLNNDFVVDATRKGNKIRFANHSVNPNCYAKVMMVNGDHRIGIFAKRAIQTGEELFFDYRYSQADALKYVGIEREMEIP
Chain of purified human, His-tagged PRC2 complex (Q15022 whole entry partner): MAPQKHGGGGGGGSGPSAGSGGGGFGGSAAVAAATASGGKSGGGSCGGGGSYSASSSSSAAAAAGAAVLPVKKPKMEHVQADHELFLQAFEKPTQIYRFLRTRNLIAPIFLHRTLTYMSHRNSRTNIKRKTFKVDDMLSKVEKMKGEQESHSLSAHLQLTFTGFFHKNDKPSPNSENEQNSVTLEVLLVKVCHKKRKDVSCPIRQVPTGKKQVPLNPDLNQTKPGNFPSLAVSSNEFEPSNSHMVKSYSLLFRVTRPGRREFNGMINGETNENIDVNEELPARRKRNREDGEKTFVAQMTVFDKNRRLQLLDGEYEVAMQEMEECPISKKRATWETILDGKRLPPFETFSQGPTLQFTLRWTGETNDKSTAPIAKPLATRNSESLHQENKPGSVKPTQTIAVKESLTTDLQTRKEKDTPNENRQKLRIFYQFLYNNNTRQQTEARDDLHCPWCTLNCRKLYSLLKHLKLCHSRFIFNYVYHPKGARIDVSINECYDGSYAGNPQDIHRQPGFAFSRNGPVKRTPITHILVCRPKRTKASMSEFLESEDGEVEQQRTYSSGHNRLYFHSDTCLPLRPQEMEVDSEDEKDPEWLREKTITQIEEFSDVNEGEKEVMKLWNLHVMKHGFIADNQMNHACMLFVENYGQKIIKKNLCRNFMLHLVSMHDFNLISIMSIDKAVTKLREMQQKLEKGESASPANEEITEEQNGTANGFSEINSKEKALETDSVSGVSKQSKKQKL
Chain of purified human, His-tagged PRC2 complex (Q6ZN18 whole entry partner): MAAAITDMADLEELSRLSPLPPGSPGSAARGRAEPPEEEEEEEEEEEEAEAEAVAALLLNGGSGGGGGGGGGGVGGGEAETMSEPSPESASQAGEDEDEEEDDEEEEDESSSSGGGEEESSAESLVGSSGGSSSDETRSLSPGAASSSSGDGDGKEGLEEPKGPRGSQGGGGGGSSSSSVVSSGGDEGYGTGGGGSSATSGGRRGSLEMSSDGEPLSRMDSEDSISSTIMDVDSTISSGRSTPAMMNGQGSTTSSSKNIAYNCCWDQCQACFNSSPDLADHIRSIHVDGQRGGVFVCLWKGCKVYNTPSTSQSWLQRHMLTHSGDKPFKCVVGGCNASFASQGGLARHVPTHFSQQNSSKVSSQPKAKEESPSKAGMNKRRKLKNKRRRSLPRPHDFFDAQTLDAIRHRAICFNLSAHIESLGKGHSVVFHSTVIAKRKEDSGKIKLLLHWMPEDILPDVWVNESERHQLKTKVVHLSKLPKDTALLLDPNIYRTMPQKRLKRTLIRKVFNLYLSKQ
Chain of purified human, His-tagged PRC2 complex (Q09028 whole entry partner): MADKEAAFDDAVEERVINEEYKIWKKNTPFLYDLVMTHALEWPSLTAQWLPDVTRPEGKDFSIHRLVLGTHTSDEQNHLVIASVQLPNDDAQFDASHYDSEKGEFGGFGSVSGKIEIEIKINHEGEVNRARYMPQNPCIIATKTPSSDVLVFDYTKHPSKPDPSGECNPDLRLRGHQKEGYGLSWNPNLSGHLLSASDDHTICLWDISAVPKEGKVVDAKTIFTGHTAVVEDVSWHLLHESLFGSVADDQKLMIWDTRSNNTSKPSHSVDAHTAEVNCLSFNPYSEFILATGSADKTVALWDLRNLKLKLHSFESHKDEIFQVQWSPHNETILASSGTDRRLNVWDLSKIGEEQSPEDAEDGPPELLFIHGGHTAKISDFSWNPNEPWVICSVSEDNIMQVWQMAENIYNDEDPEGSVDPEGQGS
For the compound `N#Cc1cn2c(NCc3c(F)ccc4c3CCO4)ncc(-c3ccccc3)c2n1` [Example 46, 5-(((5-fluoro-2,3-dihydrobenzofuran-4-yl)methyl)amino)-8-phenylimidazo[1,2-c]pyrimidine-2-carbonitrile], the IC50 (in general, the concentration that inhibits the measured activity by half) is below 0.1 µM.

Compound `N#Cc1cn2c(NCc3c(F)ccc4c3CCO4)ncc(-c3cnn(C4COC4)c3)c2n1` [Example 106, 5-(((5-fluoro-2,3-dihydrobenzofuran-4-yl)methyl)amino)-8-(1-(oxetan-3-yl)-1H-pyrazol-4-yl)imidazo[1,2-c]pyrimidine-2-carbonitrile] returned an IC50 of 0.1 to 0.5 µM.

`Cc1cc(-c2cnc(NCc3cccc4c3CCO4)n3cc(C(=O)O)nc23)n(C)n1` [Example 10, 5-(((2,3-dihydrobenzofuran-4-yl)methyl)amino)-8-(1,3-dimethyl-1H-pyrazol-5-yl)imidazo[1,2-c]pyrimidine-2-carboxylic acid] yielded an IC50 below 0.1 µM.

Take `N#Cc1cn2c(NCc3c(F)ccc4c3CCO4)ncc(-c3ccc(C(=O)O)nc3)c2n1` [Example 215, 5-(2-cyano-5-(((5-fluoro-2,3-dihydrobenzofuran-4-yl)methyl)amino)imidazo[1,2-c]pyrimidin-8-yl)picolinic Acid]: the IC50 was below 0.1 µM.

Turning to `CN(C)C(=O)c1ccc(-c2cnc(NCc3c(F)ccc4c3CCO4)n3cc(C#N)nc23)c(Cl)c1F` [Example 34, 3-chloro-4-(2-cyano-5-(((5-fluoro-2,3-dihydrobenzofuran-4-yl)methyl)amino)imidazo[1,2-c]pyrimidin-8-yl)-2-fluoro-N,N-dimethylbenzamide], the IC50 is below 0.1 µM.

`COc1cc(C)c(-c2cnc(NCc3c(F)ccc4c3CCO4)n3cc(C#N)nc23)cn1` [Example 24, 5-(((5-fluoro-2,3-dihydrobenzofuran-4-yl)methyl)amino)-8-(6-methoxy-4-methylpyridin-3-yl)imidazo[1,2-c]pyrimidine-2-carbonitrile] registered a half-inhibitory concentration (IC50) of 0.1 to 0.5 µM.

The compound `N#Cc1cn2c(NCc3c(F)ccc4c3CCO4)ncc(-c3ccc(C(=O)N4CCOCC4)cc3)c2n1` [Example 181, 5-(((5-fluoro-2,3-dihydrobenzofuran-4-yl)methyl)amino)-8-(4-(morpholine-4-carbonyl)phenyl)imidazo[1,2-c]pyrimidine-2-carbonitrile] came in with an IC50 below 0.1 µM.

Take `Cn1nc(C(=O)O)cc1-c1cnc(NCc2c(F)ccc3c2CCO3)n2cc(C#N)nc12` [Example 157, 5-(2-cyano-5-(((5-fluoro-2,3-dihydrobenzofuran-4-yl)methyl)amino)imidazo[1,2-c]pyrimidin-8-yl)-1-methyl-1H-pyrazole-3-carboxylic acid]: the concentration for half-maximal inhibition (IC50) was below 0.1 µM.

The compound `N#Cc1cn2c(NCc3c(F)ccc4c3CCO4)ncc(-c3cncc(F)c3)c2n1` [Example 97, 5-(((5-fluoro-2,3-dihydrobenzofuran-4-yl)methyl)amino)-8-(5-fluoropyridin-3-yl)imidazo[1,2-c]pyrimidine-2-carbonitrile] came in with an IC50 below 0.1 µM.

As for `Cc1cc(-c2cnc(NCc3c(F)ccc4sccc34)n3cc(C#N)nc23)n(C)n1` [Example 81, 8-(1,3-dimethyl-1H-pyrazol-5-yl)-5-(((5-fluorobenzo[b]thiophen-4-yl)methyl)amino)imidazo[1,2-c]pyrimidine-2-carbonitrile], the IC50 is above 0.5 µM.

Compound `N#Cc1cn2c(NCc3c(F)ccc4c3CCO4)ncc(-c3ccc(CN4CC(O)C4)cc3)c2n1` [Example 150, 5-(((5-fluoro-2,3-dihydrobenzofuran-4-yl)methyl)amino)-8-(4-((3-hydroxyazetidin-1-yl)methyl)phenyl)imidazo[1,2-c]pyrimidine-2-carbonitrile] had an IC50 below 0.1 µM.

The compound `Cc1ncc(F)cc1-c1cnc(NCc2c(F)ccc3c2CCO3)n2cc(C#N)nc12` [Example 62, 5-(((5-fluoro-2,3-dihydrobenzofuran-4-yl)methyl)amino)-8-(5-fluoro-2-methylpyridin-3-yl)imidazo[1,2-c]pyrimidine-2-carbonitrile] gave an IC50 below 0.1 µM.

`N#Cc1cn2c(NCc3c(F)ccc4c3CCO4)ncc(-c3cnn(Cc4cccnc4)c3)c2n1` [Example 101, 5-(((5-fluoro-2,3-dihydrobenzofuran-4-yl)methyl)amino)-8-(1-(pyridin-3-ylmethyl)-1H-pyrazol-4-yl)imidazo[1,2-c]pyrimidine-2-carbonitrile] had an IC50 of 0.1 to 0.5 µM.

Compound `CN(C)CCOc1ccc(-c2cnc(NCc3c(F)ccc4c3CCO4)n3cc(C#N)nc23)cc1` [Example 189, 8-(4-(2-(dimethylamino)ethoxy)phenyl)-5-(((5-fluoro-2,3-dihydrobenzofuran-4-yl)methyl)amino)imidazo[1,2-c]pyrimidine-2-carbonitrile] came in with an IC50 of 0.1 to 0.5 µM.

`CNS(=O)(=O)c1ccc(-c2cnc(NCc3c(F)ccc4c3CCO4)n3cc(C#N)nc23)cc1` [Example 59, 4-(2-cyano-5-(((5-fluoro-2,3-dihydrobenzofuran-4-yl)methyl)amino)imidazo[1,2-c]pyrimidin-8-yl)-N-methylbenzenesulfonamide] registered a half-maximal inhibitory concentration (IC50) below 0.1 µM.

As for `Cc1cc(-c2cnc(NCc3cccc4c3OCO4)n3cc(C#N)nc23)n(C)n1` [Example 27, 5-((benzo[d][1,3]dioxol-4-ylmethyl)amino)-8-(1,3-dimethyl-1H-pyrazol-5-yl)imidazo[1,2-c]pyrimidine-2-carbonitrile], the IC50 was above 0.5 µM.

The compound `N#Cc1cn2c(NCc3c(F)ccc4c3CCO4)ncc(-c3ccc(C4CC(=O)N4)cc3)c2n1` (stereo not drawn) [Example 222, 5-(((5-fluoro-2,3-dihydrobenzofuran-4-yl)methyl)amino)-8-(4-(4-oxoazetidin-2-yl)phenyl)imidazo[1,2-c]pyrimidine-2-carbonitrile] came in with a concentration for half-maximal inhibition (IC50) below 0.1 µM.

The compound `Cc1nc(C2CC2)ncc1-c1cnc(NCc2c(F)ccc3c2CCO3)n2cc(C#N)nc12` [Example 25, 8-(2-cyclopropyl-4-methylpyrimidin-5-yl)-5-(((5-fluoro-2,3-dihydrobenzofuran-4-yl)methyl)amino)imidazo[1,2-c]pyrimidine-2-carbonitrile] showed an IC50 of 0.1 to 0.5 µM.

For `CN(C)C(=O)c1cc(F)c(-c2cnc(NCc3c(F)ccc4c3CCO4)n3cc(C#N)nc23)cc1F` [Example 38, 4-(2-cyano-5-(((5-fluoro-2,3-dihydrobenzofuran-4-yl)methyl)amino)imidazo[1,2-c]pyrimidin-8-yl)-2,5-difluoro-N,N-dimethylbenzamide], the IC50 was below 0.1 µM.

As to `Cc1cc(S(=O)(=O)N(C)C)ccc1-c1cnc(NCc2c(F)ccc3c2CCO3)n2cc(C#N)nc12` [Example 48, 4-(2-cyano-5-(((5-fluoro-2,3-dihydrobenzofuran-4-yl)methyl)amino)imidazo[1,2-c]pyrimidin-8-yl)-N,N,3-trimethylbenzenesulfonamide], the half-maximal inhibitory concentration (IC50) is below 0.1 µM.

Consider `Cc1cc(-c2cnc(NCc3c(F)ccc4occc34)n3cc(C(N)=O)nc23)n(C)n1` [Example 18, 8-(1,3-dimethyl-1H-pyrazol-5-yl)-5-(((5-fluorobenzofuran-4-yl)methyl)amino)imidazo[1,2-c]pyrimidine-2-carboxamide], for which the IC50 is below 0.1 µM.

Regarding `Cc1cc(-c2cnc(NCc3c(F)ccc4c3CCO4)n3cc(C#N)nc23)cnn1` [Example 41, 5-(((5-fluoro-2,3-dihydrobenzofuran-4-yl)methyl)amino)-8-(6-methylpyridazin-4-yl)imidazo[1,2-c]pyrimidine-2-carbonitrile], the IC50 was below 0.1 µM.

Regarding `Cc1cn(-c2cnc(NCc3c(F)ccc4c3CCO4)n3cc(C(=O)O)nc23)cn1` [Example 4, 5-(((5-fluoro-2,3-dihydrobenzofuran-4-yl)methyl)amino)-8-(4-methyl-1H-imidazol-1-yl)imidazo[1,2-c]pyrimidine-2-carboxylic Acid], the IC50 was below 0.1 µM.

In turn, `N#Cc1cn2c(NCc3c(F)ccc4c3CCO4)ncc(-c3cnccn3)c2n1` [Example 68, 5-(((5-fluoro-2,3-dihydrobenzofuran-4-yl)methyl)amino)-8-(pyrazin-2-yl)imidazo[1,2-c]pyrimidine-2-carbonitrile] gave an IC50 below 0.1 µM.

In the case of `N#Cc1cn2c(NCc3c(F)ccc4c3CCO4)ncc(-c3ccc(C4COCCN4)cc3)c2n1` (stereo not drawn) [Example 225, 5-(((5-fluoro-2,3-dihydrobenzofuran-4-yl)methyl)amino)-8-(4-(morpholin-3-yl)phenyl)imidazo[1,2-c]pyrimidine-2-carbonitrile], the IC50 was below 0.1 µM.

In the case of `N#Cc1cn2c(NCc3c(F)ccc4c3CCO4)ncc(-c3ccc(CN4CCCC4)cc3)c2n1` [Example 74, 5-(((5-fluoro-2,3-dihydrobenzofuran-4-yl)methyl)amino)-8-(4-(pyrrolidin-1-ylmethyl)phenyl)imidazo[1,2-c]pyrimidine-2-carbonitrile], the concentration for half-maximal inhibition (IC50) is below 0.1 µM.

With `Cc1cc(-c2cnc(NCc3c(F)ccc4c3CCO4)n3cc(C(=O)N(C)C)nc23)n(C)n1` [Example 21, 8-(1,3-dimethyl-1H-pyrazol-5-yl)-5-(((5-fluoro-2,3-dihydrobenzofuran-4-yl)methyl)amino)-N,N-dimethylimidazo[1,2-c]pyrimidine-2-carboxamide], the IC50 was above 0.5 µM.

In the case of `N#Cc1cn2c(NCc3c(F)ccc4c3CCO4)ncc(-c3cnc(N)c(C(F)(F)F)c3)c2n1` [Example 134, 8-(6-amino-5-(trifluoromethyl)pyridin-3-yl)-5-(((5-fluoro-2,3-dihydrobenzofuran-4-yl)methyl)amino)imidazo[1,2-c]pyrimidine-2-carbonitrile], the IC50 was 0.1 to 0.5 µM.

The compound `Cc1ccc(-c2cnc(NCc3c(F)ccc4c3CCO4)n3cc(C#N)nc23)cc1` [Example 175, 5-(((5-fluoro-2,3-dihydrobenzofuran-4-yl)methyl)amino)-8-(p-tolyl)imidazo[1,2-c]pyrimidine-2-carbonitrile] gave an IC50 of 0.1 to 0.5 µM.

The compound `COc1cc(C)c(-c2cnc(NCc3c(F)ccc4c3CCO4)n3cc(C(N)=O)nc23)cn1` [Example 14, 5-(((5-fluoro-2,3-dihydrobenzofuran-4-yl)methyl)amino)-8-(6-methoxy-4-methylpyridin-3-yl)imidazo[1,2-c]pyrimidine-2-carboxamide] yielded an IC50 of 0.1 to 0.5 µM.
